Molecular target: hMC4R (Homo sapiens, UniProt P32245)
Assay: Saturation binding of Eu-labeled probe to Hek293 cells overexpressing hMC4R
Settings: Kd of labeled ligand compared with parental ligand MSH(4)

Sequence of hMC4R (P32245 whole entry): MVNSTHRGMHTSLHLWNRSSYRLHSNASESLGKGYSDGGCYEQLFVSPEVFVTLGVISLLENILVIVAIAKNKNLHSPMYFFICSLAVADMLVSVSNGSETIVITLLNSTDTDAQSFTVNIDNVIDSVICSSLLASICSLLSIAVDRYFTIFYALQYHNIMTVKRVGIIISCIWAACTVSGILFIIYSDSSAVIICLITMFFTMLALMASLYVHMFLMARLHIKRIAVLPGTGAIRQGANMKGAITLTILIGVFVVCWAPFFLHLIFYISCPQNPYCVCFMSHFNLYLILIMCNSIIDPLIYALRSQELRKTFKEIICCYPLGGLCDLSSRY

Affinity for hMC4R, fold lower than the parental ligand: approximately 10 fold
Compound: N=C(N)NCCC[C@H](NC(=O)[C@@H](Cc1ccccc1)NC(=O)[C@H](Cc1c[nH]cn1)NC(=O)COCC(=O)NCCCOCCOCCOCCCNC(=O)CN(CCN(CCN(CC(=O)O)CC(=O)O)CC(=O)O)CC(=O)O)C(=O)N[C@@H](Cc1c[nH]c2ccccc12)C(N)=O [compound 1, Eu-DTPA-PEGO-His-DPhe-Arg-Trp-NH2]

Source: PMC2857964 (Bioorganic & medicinal chemistry letters, 2010)
